Assays:
PTRGER4 (EP4) = PTRGER4 (EP4) (Homo sapiens (Human), UniProt P35408); assay: hEP4 b-arrestin assay (PathHunter HEK 293 PTGER4 b-arrestin cells); format: cell-based
How it was run: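 Antagonist mode: compound is given 15 min at 37 °C, then 20 nM (final) PGE2 for 120 min, in HEK293 cells stably expressing EP4 fused to ProLink and β-arrestin 2 fused to EA. Recruitment read as β-gal luminescence after 1 h reagent at room temperature, as percent of DMSO control.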

PTGER2 (EP2) = PTGER2 (EP2) (Homo sapiens (Human), UniProt P43116); assay: hEP2 b-arrestin assay (PathHunter HEK 293 PTGER2 b-arrestin cells); format: cell-based
PTGER2 (EP2), sequence (P43116 whole entry): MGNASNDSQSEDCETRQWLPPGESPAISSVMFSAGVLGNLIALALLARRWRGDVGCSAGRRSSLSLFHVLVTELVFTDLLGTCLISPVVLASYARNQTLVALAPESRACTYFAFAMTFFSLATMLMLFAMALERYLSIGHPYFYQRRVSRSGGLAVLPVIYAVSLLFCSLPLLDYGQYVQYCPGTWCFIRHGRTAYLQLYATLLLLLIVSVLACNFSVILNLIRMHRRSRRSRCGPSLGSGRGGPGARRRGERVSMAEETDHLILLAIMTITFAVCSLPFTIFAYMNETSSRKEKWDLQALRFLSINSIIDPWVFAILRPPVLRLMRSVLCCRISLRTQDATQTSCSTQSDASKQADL
How it was run: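 Readout is β-galactosidase complementation luminescence, expressed as percent of DMSO control (duplicates). PathHunter HEK293 EP2/β-arrestin 2 cells, grown 24 h, received compound for 15 min at 37 °C before a 120 min challenge with PGE2 at 5 μM final, followed by 1 h detection at room temperature.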

[1] = antagonistic activity on hEP4, mean where measured multiple times
[2] = antagonistic activity on hEP2, mean where measured multiple times
[3] = hEP4 b-arrestin assay (values without asterisk)
[4] = hEP2 b-arrestin assay (values without asterisk)

PTRGER4 (EP4), sequence (P35408 whole entry, looked up, the tested form may be a part): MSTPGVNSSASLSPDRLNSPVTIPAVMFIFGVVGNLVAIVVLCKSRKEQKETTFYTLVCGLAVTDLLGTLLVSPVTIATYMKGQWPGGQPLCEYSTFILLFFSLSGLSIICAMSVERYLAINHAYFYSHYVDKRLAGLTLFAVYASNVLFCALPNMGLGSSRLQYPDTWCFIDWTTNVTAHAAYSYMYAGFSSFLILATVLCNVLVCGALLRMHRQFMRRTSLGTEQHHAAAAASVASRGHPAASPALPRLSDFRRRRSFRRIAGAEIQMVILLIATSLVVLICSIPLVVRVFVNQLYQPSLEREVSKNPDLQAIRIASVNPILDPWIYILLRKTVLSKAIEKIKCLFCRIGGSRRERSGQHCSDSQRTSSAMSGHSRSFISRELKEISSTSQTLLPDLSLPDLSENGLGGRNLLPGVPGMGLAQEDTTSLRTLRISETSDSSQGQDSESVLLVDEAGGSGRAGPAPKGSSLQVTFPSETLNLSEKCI

IC50 (PTRGER4 (EP4); [1]) [nM]	IC50 (PTGER2 (EP2); [2]) [nM]	IC50 (PTRGER4 (EP4); [3]) [nM]	IC50 (PTGER2 (EP2); [4]) [nM]	SMILES
296	10			CCC1NC(=O)c2ccc(-c3cc(NCCn4c(C)cc5c(OC)ccc(F)c54)ncn3)cc21 (racemic) [compound 319]
829	98			CSc1cc(-c2cc(NCCn3c(C)cc4c(C)c(F)cc(Cl)c43)ncn2)cc(Cl)c1C(=O)O [compound 331]
468	183			COc1ccc(F)c2c1cc(C)n2CCNc1cc(-c2ccc(C3(N)CC3)cc2)ncn1 [compound 385]
9	3			CCOc1cc(-c2cc(NCCn3c(C#N)cc4c(C)cc(F)cc43)ncn2)sc1C(=O)O [compound 249]
103	3			CNc1cc(-c2cc(NCCn3c(C)cc4c(OC)ccc(Cl)c43)ncn2)ccc1C(=O)O [compound 250]
317	52			COc1ccc(F)c2c1cc(C)n2CCNc1cc(-c2ccc(C(=O)O)c(C)c2)ncn1 [compound 233]
449	340			Cc1ccc(F)c2c1cc(C)n2CCNc1cc(-c2ccc(C3(C(=O)O)CC3)c(F)c2)ncn1 [compound 378]
991	472			CCOc1cc(-c2cc(NCCn3c(C)cc4c(C)cc(F)c(Cl)c43)ncn2)ccc1C(=O)O [compound 210]
993	6			CCOc1cc(-c2cc(NCCn3c(C)cc4c(F)c(F)cc(Cl)c43)ncn2)ccc1C(=O)O [compound 350, 4-{6-[2-(7-Chloro-4,5-difluoro-2-methyl-indol-1-yl)-ethylamino]-pyrimidin-4-yl}-2-ethoxy-benzoic acid]
38	13			COc1ccc(F)c2c1cc(C)n2CCNc1cc(-c2ccc(-c3c[nH]cn3)cc2)ncn1 [compound 191, [2-(7-Fluoro-4-methoxy-2-methyl-indol-1-yl)-ethyl]-{6-[4-(1H-imidazol-4-yl)-phenyl]-pyrimidin-4-yl}-amine]
281	2			CCNc1cc(-c2cc(NCCn3c(C)cc4c(F)ccc(F)c43)ncn2)ccc1C(=O)O [compound 243]
127	37			CCOc1cc(-c2cc(NCCn3c(C)cc4cc(OC)cc(F)c43)ncn2)sc1C(=O)O [compound 259]
296	15			COc1ccc(F)c2c1cc(C)n2CCNc1cc(-c2ccc(C(=O)O)c([N+](=O)[O-])c2)ncn1 [compound 394]
702	8			CCc1cc(-c2cc(NCCn3c(C)cc4c(OC)cccc43)ncn2)ccc1C(=O)O [compound 223]
963	34			COc1ccc(Cl)c2c1cc(C)n2CCNc1cc(-c2ccc3c(C(=O)O)n[nH]c3c2)ncn1 [compound 388]
357	858			CCCc1cc(-c2cc(NCCn3c(C)cc4c(CC)ccc(F)c43)ncn2)ccc1C(=O)O [compound 338]

More lines, now with the values behind:

SMILES	IC50 (PTRGER4 (EP4); [1]) [nM]	IC50 (PTGER2 (EP2); [2]) [nM]	IC50 (PTRGER4 (EP4); [3]) [nM]	IC50 (PTGER2 (EP2); [4]) [nM]
Cc1cc(F)cc2c1cc(C)n2CCNc1cc(-c2ccc(C(=O)O)c(Cl)c2)ncn1 [compound 105]	934	34		
Cc1cc(F)c(F)c2c1cc(C)n2CCNc1cc(-c2ccc3cc[nH]c3c2)ncn1 [compound 59, [2-(6,7-Difluoro-2,4-dimethyl-indol-1-yl)-ethyl]-[6-(1H-indol-6-yl)-pyrimidin-4-yl]-amine]	485	213		
CCCOc1nc(-c2cc(NCCn3c(C)cc4c(OC)ccc(F)c43)ncn2)sc1C(=O)O [Example 1035, 2-{6-[2-(7-Fluoro-4-methoxy-2-methyl-indol-1-yl)-ethylamino]-pyrimidin-4-yl}-4-propoxy-thiazole-5-carboxylic acid]			29	2
COc1cc(-c2cc(NCCn3c(C)cc4c(C)ccc(F)c43)ncn2)ccc1CO [compound 30, (4-{6-[2-(7-Fluoro-2,4-dimethyl-indol-1-yl)-ethylamino]-pyrimidin-4-yl}-2-methoxy-phenyl)-methanol]	243	34		
Cc1ccc(F)c2c1cc(C)n2CCNc1cc(-c2ccc3[nH]cnc3c2)ncn1 [compound 164]	520	113		
COc1ccc(F)c2c1cc(C#N)n2CCNc1cc(-c2ccc(NC=O)cc2)ncn1 [Example 971, N-(4-{6-[2-(2-Cyano-7-fluoro-4-methoxy-indol-1-yl)-ethylamino]-pyrimidin-4-yl}-phenyl)-formamide]			24	39
CCOc1cc(-c2cc(NCCn3c(C#N)cc4c(OC)ccc(F)c43)ncn2)ccc1S(N)(=O)=O [Example 929, 4-{6-[2-(2-Cyano-7-fluoro-4-methoxy-indol-1-yl)-ethylamino]-pyrimidin-4-yl}-2-ethoxy-benzenesulfonamide]			33	20
Cc1cc2ccccc2n1CCNc1cc(-c2cc(Cl)c(C(=O)O)s2)ncn1 [compound 5]	629	5		
Cc1cc(F)cc2c1cc(C)n2CCNc1cc(-c2ccc(-c3noc(=O)[nH]3)cc2)ncn1 [compound 182]	141	56		
COc1ccc(F)c2c1cc(C#N)n2CCNc1cc(-c2ccc(C(=O)O)c(SC(C)C)c2)ncn1 [Example 937, 4-{6-[2-(2-Cyano-7-fluoro-4-methoxy-indol-1-yl)-ethylamino]-pyrimidin-4-yl}-2-isopropylsulfanyl-benzoic acid]			13	21
CCCc1cc(-c2cc(NCCn3c(C)cc4c(C)ccc(F)c43)ncn2)ccc1C(=O)O [compound 147, 4-{6-[2-(7-Fluoro-2,4-dimethyl-indol-1-yl)-ethylamino]-pyrimidin-4-yl}-2-propyl-benzoic acid]	109	16		
CCOc1cc(-c2cc(NCCn3c(C)cc4c(Cl)ccc(Cl)c43)ncn2)ccc1C(=O)O [compound 151, 4-{6-[2-(4,7-Dichloro-2-methyl-indol-1-yl)-ethylamino]-pyrimidin-4-yl}-2-ethoxy-benzoic acid]	808	8		
COc1ccc(F)c2c1cc(C#N)n2CCNc1cc(-c2ccc3[nH]c(=O)[nH]c3c2)ncn1 [Example 987, 7-Fluoro-1-{2-[6-(2-oxo-2,3-dihydro-1H-benzo[d]imidazol-5-yl)-pyrimidin-4-ylamino]-ethyl}-4-methoxy-1H-indole-2-carbonitrile]			67	44
COc1ccc(F)c2c1cc(C#N)n2CCNc1cc(-c2c(C)nn(C)c2C)ncn1 [Example 998, 7-Fluoro-4-methoxy-1-{2-[6-(1,3,5-trimethyl-1H-pyrazol-4-yl)-pyrimidin-4-ylamino]-ethyl}-1H-indole-2-carbonitrile]			686	48
CCOc1cc(-c2cc(NCCn3c(C#N)cc4c(OC)ccc(F)c43)ncn2)sc1C(=O)NCCOC [Example 1028, 5-{6-[2-(2-Cyano-7-fluoro-4-methoxy-indol-1-yl)-ethylamino]-pyrimidin-4-yl}-3-ethoxy-thiophene-2-carboxylic acid (2-methoxy-ethyl)-amide]			2	9
COc1cc(F)cc2c1cc(C)n2CCNc1cc(-c2cc(O)c(C(=O)O)s2)ncn1 [Example 800, 5-{6-[2-(6-Fluoro-4-methoxy-2-methyl-indol-1-yl)-ethylamino]-pyrimidin-4-yl}-3-hydroxy-thiophene-2-carboxylic acid]			44	12
CCOc1cc(-c2cc(NCCn3c(C)cc4c(OC)cc(F)cc43)ncn2)ccc1NCC(=O)O [Example 882, (2-Ethoxy-4-{6-[2-(6-fluoro-4-methoxy-2-methyl-indol-1-yl)-ethylamino]-pyrimidin-4-yl}-phenylamino)-acetic acid]			55	11
CCNc1csc(-c2cc(NCCn3c(C)cc4c(C)ccc(F)c43)ncn2)c1 [Example 1068, [6-(4-Ethylamino-thiophen-2-yl)-pyrimidin-4-yl]-[2-(7-fluoro-2,4-dimethyl-indol-1-yl)-ethyl]-amine]			15	10
CCOc1cc(-c2cc(NCCn3c(C#N)cc4c(OC)ccc(F)c43)ncn2)ccc1CCC(=O)O [Example 924, 3-(4-{6-[2-(2-Cyano-7-fluoro-4-methoxy-indol-1-yl)-ethylamino]-pyrimidin-4-yl}-2-ethoxy-phenyl)-propionic acid]			308	224
COc1ccc(F)c2c1cc(C#N)n2CCNc1cc(-c2ccc(O)c(OC(F)(F)F)c2)ncn1 [Example 866, 7-Fluoro-1-{2-[6-(4-hydroxy-3-trifluoromethoxy-phenyl)-pyrimidin-4-ylamino]-ethyl}-4-methoxy-1H-indole-2-carbonitrile]			5	8
COc1cccc2c1cc(C)n2CCNc1cc(-c2ccc(-c3noc(C)n3)cc2)ncn1 [compound 179, [2-(4-Methoxy-2-methyl-indol-1-yl)-ethyl]-{6-[4-(5-methyl-[1,2,4]oxadiazol-3-yl)-phenyl]-pyrimidin-4-yl}-amine]	880	20		
COc1ccc(F)c2c1cc(C#N)n2CCNc1cc(-c2cccc(CCC(=O)O)c2)ncn1 [Example 1011, 3-(3-{6-[2-(2-Cyano-7-fluoro-4-methoxy-indol-1-yl)-ethylamino]-pyrimidin-4-yl}-phenyl)-propionic acid]			228	120
COc1ccc(F)c2c1cc(C#N)n2CCNc1cc(-c2ccc(-c3cnn[nH]3)cc2)ncn1 [Example 923, 7-Fluoro-4-methoxy-1-(2-{6-[4-(3H-[1,2,3]triazol-4-yl)-phenyl]-pyrimidin-4-ylamino}-ethyl)-1H-indole-2-carbonitrile]			42	20
